# In patent publication US20250000843A1, “LIGNAN-INSPIRED COMPOUNDS, METHODS OF MAKING, AND USING THEREOF” (IOWAIBO, INC., priority 2023, published 2025):
# Test system: PC3, a human prostate cancer cell line
# Test: MTT toxicity assay in PC3 prostate cancer cells
# Type: cell-based
# Method: Toxicity of the dibenzyl butyl lactone derivative (3-[(3,4-dimethoxyphenyl)cyclopentyl], 4-[(3-hydroxyphenol)methyl]oxolan-2-one) in breast cancer cells was evaluated using MTT assay. The MTT toxicity test is a colorimetric assay to measure cells' metabolic activity by serving as a substrate of cellular enzymes that reduce the tetrazolium orange dye, MTT (3-(4,5-Dimethylthiazol-2-yl)-2,5-diphenyltetrazolium bromide) to its insoluble, formazan, giving a purple color. The rate of conversion is directly proportional to cells' mitochondrial metabolic activity via NAD (P) H-dependent cellular oxidoreductase enzymes and serves as a surrogate marker of cell viability.
# Cells previously expanded were seeded in 96 well plates at 1.9×10^5 and 9.6×10^4 cells/plate for 24- and 72-hours treatment respectively. This concentration is known to show the best window for the MTT assay, with better sensitivity and low variability.
# 5 mg of powdered enterolactone, dibenzyl butyl lactone derivative enantiomer A, and dibenzyl butyl lactone derivative enantiomer B were dissolved in 500 μl of DMSO at room temperature. Eight-point curves, ⅓ dilutions (highest concentration 125 μM), were prepared.
# Twenty-four hours following the seeding process, the cells were washed once with phosphate buffered saline (PBS) and treated with the respective compounds in cell culture media. Each condition was tested in triplicates. For positive and negative controls, 8 mM methyl methane sulfonate (MMS) and DMSO 100% were used respectively.
# Following compound addition, the plates were incubated for 24 and 72 hours. After the treatment period, cells were washed twice with PBS and media was replaced with MTT reagent at 0.5 mg/ml in Dulbecco's modified Eagle medium (DMEM) without phenol red. The plates were gently shaken and incubated for 4 hours. After the incubation the medium was removed and replaced by DMSO. The plates were gently shaken to solubilize the formazan crystals. Absorbance was measured using an Envision multiplate reader at a wavelength of 570 nm.
# Toxicity of the dibenzyl butyl lactone derivative (3-[(3,4-dimethoxyphenyl)cyclopentyl], 4-[(3-hydroxyphenol)methyl]oxolan-2-one) in prostate cancer cells was evaluated using MTT assay. The same methods as those used in Example 2 were employed, except the cell line used was PC3, a human prostate cancer cell line, and cell cultures were established in Kaighn's modification of Ham's […] medium.
# MTT assay results are shown in Tables 16-21 and expressed as the percentage of cell death after treatment.
smiles,measurement,setting,value
"O=C1OCC(Cc2ccc3c(c2)OCO3)/C1=C\c1cccc(O)c1 (single isomer, unassigned) [Enantiomer A, 3-[(3,4-dimethoxyphenyl)cyclopentyl], 4-[(3-hydroxyphenol)methyl]oxolan-2-one]",Cell death #1 (%),"PC3, 24 hours, 0.06 μM",−10.92%
same,Cell death #2 (%),"PC3, 24 hours, 0.06 μM",−13.82%
same,Cell death #3 (%),"PC3, 24 hours, 0.06 μM",−11.02%
same,Cell death (%) MEAN,"PC3, 24 hours, 0.06 μM",−11.92%
same,Cell death #1 (%),"PC3, 24 hours, 0.17 μM",−27.17%
same,Cell death #2 (%),"PC3, 24 hours, 0.17 μM",−17.50%
same,Cell death #3 (%),"PC3, 24 hours, 0.17 μM",−8.79%
same,Cell death (%) MEAN,"PC3, 24 hours, 0.17 μM",−17.82%
same,Cell death #1 (%),"PC3, 24 hours, 0.51 μM",−2.70%
same,Cell death #2 (%),"PC3, 24 hours, 0.51 μM",−15.18%
same,Cell death #3 (%),"PC3, 24 hours, 0.51 μM",−10.44%
same,Cell death (%) MEAN,"PC3, 24 hours, 0.51 μM",−9.44%
same,Cell death #1 (%),"PC3, 24 hours, 1.54 μM",−29.20%
same,Cell death #2 (%),"PC3, 24 hours, 1.54 μM",−24.37%
same,Cell death #3 (%),"PC3, 24 hours, 1.54 μM",−23.78%
same,Cell death (%) MEAN,"PC3, 24 hours, 1.54 μM",−25.78%
same,Cell death #1 (%),"PC3, 24 hours, 4.63 μM",−17.98%
same,Cell death #2 (%),"PC3, 24 hours, 4.63 μM",−21.37%
same,Cell death #3 (%),"PC3, 24 hours, 4.63 μM",−15.27%
same,Cell death (%) MEAN,"PC3, 24 hours, 4.63 μM",−18.21%
same,Cell death #1 (%),"PC3, 24 hours, 13.89 μM",−26.49%
same,Cell death #2 (%),"PC3, 24 hours, 13.89 μM",−20.40%
same,Cell death #3 (%),"PC3, 24 hours, 13.89 μM",−18.56%
same,Cell death (%) MEAN,"PC3, 24 hours, 13.89 μM",−21.82%
same,Cell death #1 (%),"PC3, 24 hours, 41.67 μM",−6.18%
same,Cell death #2 (%),"PC3, 24 hours, 41.67 μM",−0.76%
same,Cell death #3 (%),"PC3, 24 hours, 41.67 μM",−12.85%
same,Cell death (%) MEAN,"PC3, 24 hours, 41.67 μM",−6.60%
same,Cell death #1 (%),"PC3, 24 hours, 125.00 μM",32.42%
same,Cell death #2 (%),"PC3, 24 hours, 125.00 μM",28.74%
same,Cell death #3 (%),"PC3, 24 hours, 125.00 μM",33.00%
same,Cell death (%) MEAN,"PC3, 24 hours, 125.00 μM",31.39%
same,Cell death #1 (%),"PC3, 72 hours, 0.06 μM",−39.43%
same,Cell death #2 (%),"PC3, 72 hours, 0.06 μM",−40.43%
same,Cell death #3 (%),"PC3, 72 hours, 0.06 μM",−33.95%
same,Cell death (%) MEAN,"PC3, 72 hours, 0.06 μM",−37.94%
same,Cell death #1 (%),"PC3, 72 hours, 0.17 μM",−43.42%
same,Cell death #2 (%),"PC3, 72 hours, 0.17 μM",−40.55%
same,Cell death #3 (%),"PC3, 72 hours, 0.17 μM",−38.31%
same,Cell death (%) MEAN,"PC3, 72 hours, 0.17 μM",−40.76%
same,Cell death #1 (%),"PC3, 72 hours, 0.51 μM",−63.73%
same,Cell death #2 (%),"PC3, 72 hours, 0.51 μM",−69.58%
same,Cell death #3 (%),"PC3, 72 hours, 0.51 μM",−63.23%
same,Cell death (%) MEAN,"PC3, 72 hours, 0.51 μM",−65.51%
same,Cell death #1 (%),"PC3, 72 hours, 1.54 μM",−46.91%
same,Cell death #2 (%),"PC3, 72 hours, 1.54 μM",−52.39%
same,Cell death #3 (%),"PC3, 72 hours, 1.54 μM",−53.51%
same,Cell death (%) MEAN,"PC3, 72 hours, 1.54 μM",−50.94%
same,Cell death #1 (%),"PC3, 72 hours, 4.63 μM",−76.31%
same,Cell death #2 (%),"PC3, 72 hours, 4.63 μM",−66.59%
